Source: patent US20110020925A1, “NEW MODULATING MOLECULES FOR AN IMPROVED REGULATED EXPRESSION SYSTEM” (BAYER SCHERING PHARMA AKTIENGESELLSCHAFT, priority 2007, published 2011)
Residue numbers refer to the chain shown, from its start.

Legend:
original RP (pGT45) = molecular target: T1, original RP (pGT45) (Homo sapiens, UniProt P06401); assay: In vivo mSEAP serum level after inducer, mice with pGT45 (original RP); details: 0.33 mg/kg or 1 mg/kg i.p. days 7-10
T1 construct: expressed in transfected cells; host or cells: mouse hind limb muscle in vivo (plasmid injection plus electroporation)
T1 sequence (P06401 640-914): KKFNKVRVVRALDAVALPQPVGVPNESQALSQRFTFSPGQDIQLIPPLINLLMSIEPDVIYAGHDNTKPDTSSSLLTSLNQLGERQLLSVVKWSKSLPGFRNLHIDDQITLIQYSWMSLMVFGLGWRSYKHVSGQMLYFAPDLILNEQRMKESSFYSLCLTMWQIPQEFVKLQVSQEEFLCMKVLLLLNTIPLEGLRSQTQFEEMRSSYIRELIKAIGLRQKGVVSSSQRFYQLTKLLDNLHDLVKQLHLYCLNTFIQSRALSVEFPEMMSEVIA
Procedure: Upon the conclusion of in vitro testing, the divergent orientation of mSEAP and RP in pGT45 and pGT1048 were tested side-by-side in a mouse study. Mice were injected with plasmid DNA in the hind limbs and electroporation was used to deliver the DNA into the muscle cells on day 0. […] Six hours after the last injection on day 10, samples of blood were collected from the tail veins of the mice. mSEAP levels in the serum were measured to determine the level of this reporter expression following induction with compounds. Additional blood samples were collected prior to injection of inducers on day 7, as well as on days 18 and 25 to monitor the drop off of mSEAP expression.

IP-10 [1] = assay: MFP dose/response and plasmid re-injection with BRES-1/mIFN plasmid pGT26 in vivo, IP-10 ELISA; parameters: species or system C57BI/6 mice; details: MFP 0.0033 mg/kg i.p. days 7-10
Procedure: The inducible mIFN-γ expression plasmid pGT26 was injected and electroporated on day 0 into hind limb muscles of C57BI/6 mice. […] Bleeds were taken on day 88 and 200, respectively. Serum was assayed for the chemokine IP-10 by ELISA. The results are shown as the mean (n=5 animals per group).
In addition, a complete pharmacokinetic profile of the expression of the therapeutic molecule (TM) can be performed using an activator molecule (AM) to determine the AM dose/response, as well as the kinetics of induction of TM expression following AM administration. […] Blood was collected at days 11 post-injection, and serum samples were assayed for IP-10 (see “Experimental Design” below for details). […] By day 67 the level of IP-10 had decreased several-fold from the day 11 level, so the plasmid DNA was re-injected at day 77.
For safety studies in humans, a complete characterization of the rate at which the activator molecule (AM) and TM expression can be turned “off” following withdrawal of the AM can be performed. The frequency of AM dosing necessary to achieve steady state levels of the TM can be evaluated.
• DNA solutions: Each mouse received 250 ug of plasmid DNA in 150 ul PBS. • DNA delivery: Adult male C57BI/6 mice were injected bilaterally on day 0 with 250 ug plasmid DNA per mouse in 150 ul PBS. […]

V729L/W755A RP (pBRES) = molecular target: T2, V729L/W755A RP (pBRES) (Homo sapiens, UniProt P06401, V729L/W755A); assay: Induction of luciferase, mSEAP or hIFNb from pBRES with V729L/W755A RP in C2C12 cells; format: cell-based, mouse; details: every orientation, three transgenes
T2 construct: expressed in transfected cells; host or cells: C2C12 mouse muscle cells
T2 sequence (P06401 640-914 V729L/W755A): T1 sequence (P06401 640-914) with V90L, W116A

murine acute EAE model = assay: Mouse acute EAE model, clinical scoring; format: in vivo, SJL mice; details: for clinical scores of EAE, positive controls: i.p. twice daily, Mesopram 9 mg/kg, Prednisolone 2.5 mg/kg
GAL-4 DBS = details: read-out: Kd for binding; cited from earlier work
JE = JE plasma level in mice (ELISA) after mIFN-β protein or gene delivery; format: in vivo, C57BI/6 mice; details: each of three doses, i.v. or i.m.
Procedure: (§1) FIG. 7 illustrates induction levels of IP-10 (A) and JE (B) following i.v. or i.m. injection of murine IFN-ÿ protein. C57BI/6 mice were administered 15, 150, or 500 ng of purified recombinant mIFN-ÿ protein (specific activity=2.0×108 units/mg) by either i.v. (via tail vein) or i.m. injection (n=3 mice per group). The mice were bled at 2, 4, 6, 12, 24, and 48 hours post-injection, and the plasma levels of IP-10 and JE were measured by ELISA (R&D Systems).
C. Chemokines IP-10 and JE: During the analysis of plasma samples from mice treated with mIFN-β protein, two murine chemokines, IP-10 and JE the murine homologue of MCP-1 (monocyte chemoattractant protein, see e.g., Yoshimura, T (1989) FEBS Lett 244: 487-93), were also identified to have a similar response and activation to mIFN-β as Mx1 RNA (FIGS. 7 and 8). A strong induction of IP-10 and JE was seen 2 hours after administration of mIFN-β protein either i.v. or i.m. IP-10 levels increased 3000-fold at the high dose delivered i.v. With each of the three mIFN-β doses tested, a rapid drop to background in the plasma levels of IP-10 and JE was observed by 24 hours.

IP-10 [2] = assay: IP-10 plasma level in mice (ELISA) after mIFN-β protein or gene delivery; format: in vivo, C57BI/6 mice
Procedure: as §1
FIG. 8 illustrates the induction of IP-10 following intramuscular injection of AAV-1-mIFN-ÿ DNA or mIFN-ÿ plasmid DNA with electroporation (EP) in mice. Normal mice (C57BI/6) were injected i.m. with either AAV-1-mIFN-ÿ (5×10^9 viral particles), or mIFN-ÿ plasmid DNA (150 ug) with electroporation. Mice were bled at the indicated time points and IP-10 levels in plasma were determined by ELISA. Each column represents the mean value+/−the standard deviation (n=5 mice per group).
C. Chemokines IP-10 and JE: During the analysis of plasma samples from mice treated with mIFN-β protein, two murine chemokines, IP-10 and JE the murine homologue of MCP-1 (monocyte chemoattractant protein, see e.g., Yoshimura, T (1989) FEBS Lett 244: 487-93), were also identified to have a similar response and activation to mIFN-β as Mx1 RNA (FIGS. 7 and 8). […]
The plasma samples were also analyzed for IP-10 and JE (FIGS. 7 and 8). […]

Mx1 RNA [3] = assay: Mx1 RNA induction in L929 cells (TaqMan RT-PCR); format: cell-based, murine
Procedure: FIG. 5 illustrates Mx1 RNA induction in vitro (in L929 cells) by mIFN-ÿ. L929 cells were seeded at 5×10^5 cells in 6 well plates and stimulated with increasing amounts of purified recombinant mIFN-ÿ protein. Four hours after treatment the cells were harvested, RNA isolated, and Mx1 RNA quantitated by TaqMan analysis. Mx1 RNA expression is plotted as the fold increase relative to GAPDH RNA.
A quantitative PCR/RT-PCR assay was developed to quantitate the levels of Mx1 mRNA in murine PBMC's. Specifically, peripheral blood mononuclear cells (PBMCs) were isolated from mice treated with either mIFN-β protein or following gene-based delivery of the mIFN-β gene. Blood samples obtained from treated mice were centrifuged on a ficoll cushion for 25 minutes at 2,000 rpm. Purified PBMCs were pelleted and RNA for the Mx1 assay was purified using the “RNAeasy” mini extraction kit from Qiagen. The RNA was stored in H2O at −80° C. Mx1 RT-PCR was performed using TaqMan® chemistry and analysis was done on the Applied Biosystems (ABI) PRISM® 7700 Sequence Detection instrument. For reverse transcription of the RNA and amplification of cDNA, the “One-step TaqMan® RNA” kit from ABI was used. […] The samples were analyzed with an Mx1-specific probe/primer combination. Mx1 expression was normalized to GAPDH expression measured in parallel using a standard assay from ABI. […]

Mx1 RNA [4] = assay: Mx1 RNA induction in PBMCs of mice (quantitative RT-PCR) after mIFN-β protein or gene delivery; format: in vivo, C57BI/6 mice
Procedure: C57BI/6 mice were administered 15, 150, or 500 ng of purified recombinant mIFN-ÿ protein (specific activity-2.0×108 units/mg) by either i.v. (via tail vein) or i.m. injection (n=3 mice per group). At the specified time points post-injection mice were bled, and RNA was isolated from PBMCs. Mx1 RNA was measured by quantitative RT-PCR. The fold increase in Mx1 RNA is expressed relative to GAPDH values measured in the same samples. The controls include naive mice (N), and mice injected with the vehicle buffer only followed by Mx1 analysis at 2 hours (V2h) or 4h (V4h) post-injection. Each column represents the mean value+/−standard deviation.
A quantitative PCR/RT-PCR assay was developed to quantitate the levels of Mx1 mRNA in murine PBMC's. Specifically, peripheral blood mononuclear cells (PBMCs) were isolated from mice treated with either mIFN-β protein or following gene-based delivery of the mIFN-β gene. Blood samples obtained from treated mice were centrifuged on a ficoll cushion for 25 minutes at 2,000 rpm. […] The samples were analyzed with an Mx1-specific probe/primer combination. Mx1 expression was normalized to GAPDH expression measured in parallel using a standard assay from ABI.
B. Bolus Injection of mIFN-β Protein Induces Transient Biomarker Response In Vivo: The biomarker response after bolus injection of purified recombinant mIFN-β was measured in these studies.

[5] = Luciferase reporter gene assay for activity of purified mIFN-β protein; format: cell-based; details: commercial mIFN-β reference standard
Procedure: Specifically, the gene encoding mIFN-β was cloned into a pCEP4 expression vector (Invitrogen). The expression plasmid encoding mIFN-β was transiently transfected into 293E cells (Edge Biosystems) using X-tremeGene Ro-1539 Transfection Reagent (Roche). Murine IFN-β protein was purified from the medium by ion-exchange chromatography and by hydrophobic-interaction chromatography. The product was sialyzed and concentrated against dilution buffer (50 mM sodium acetate, pH 5.5, 150 mM sodium chloride, and 5% polypropylene glycol) and sterile filtered. Aliquots of the purified protein were stored at −80° C. The activity of the purified protein was assessed using a luciferase reporter gene assay (Hardy et al. (2001) Blood 97:473-482), using a commercial mIFN-β reference standard from Access Biomedical (San Diego, Calif.). The specific activity of the purified protein was 2×10^8 units/mg.

**Q.** With `CC#C[C@]1(O)CC[C@H]2[C@@H]3CCC4=CC(=O)CCC4=C3[C@@H](c3ccc(N(C)C)cc3)C[C@@]21C` [MFP, 11-(4-dimethylaminophenyl)-17-hydroxy-17c-propynyl-4,9-estradiene-3-one] as the molecule, how does the “response (serum mSEAP) of mice to inducer” value (original RP (pGT45)) read?
**A.** The value was “responded well”.

**Q.** And the “IP-10 levels at lowest MFP dose” value (IP-10 [1])?
**A.** Its value is “no increase over background IP-10 levels”.

**Q.** And the “activity of engineered RP when induced” value (V729L/W755A RP (pBRES))?
**A.** Its value is “retained full activity”.

**Q.** Which “clinical scores of EAE, positive controls” value (murine acute EAE model; first study) does the source give for `CCCOc1cc([C@]2(C)CNC(=O)O2)ccc1OC` [Mesopram] here?
**A.** Its value is “significantly decreased clinical scores”.

**Q.** What about the “clinical scores of EAE, positive controls” value (murine acute EAE model; second study) of the same molecule?
**A.** The value was “significantly decreased clinical scores”.

**Q.** With `C[C@]12C=CC(=O)C=C1CC[C@@H]1[C@@H]2[C@@H](O)C[C@@]2(C)[C@H]1CC[C@]2(O)C(=O)CO` [Prednisolone] as the molecule, how does the “clinical scores of EAE, positive controls” value (murine acute EAE model; first study) read?
**A.** Its value is “significantly decreased clinical scores”.

**Q.** And the “clinical scores of EAE, positive controls” value (murine acute EAE model; second study)?
**A.** Its value is “significantly decreased clinical scores”.

**Q.** With “GAL-4 residues 1-100: N-terminal DNA binding domain fragment of yeast GAL-4 protein” as the molecule, how does the Kd (GAL-4 DBS) read?
**A.** The Kd was 3 nM.

**Q.** What does the source list for “mIFN-β: purified recombinant murine interferon-β protein expressed in 293E cells”?
**A.** time of drop to background of JE plasma level (JE): ≤ 24 h; clinical scores of EAE compared to vehicle treated mice (murine acute EAE model; first study, 30,000 units s.c. every other day): did not reach statistical significance; clinical scores of EAE compared with vehicle treated mice (murine acute EAE model; first study, 100,000 units s.c. every other day): significantly decreased clinical scores; clinical scores compared to the vehicle control treated mice (murine acute EAE model; second study, 100,000 Units s.c. every other day): significantly decreased clinical scores; time of drop to background of IP-10 plasma level (IP-10 [2]; each of three doses, i.v. or i.m.): ≤ 24 h; increase of IP-10 levels (IP-10 [2]; high dose delivered i.v.): 3000 fold; increase in the level of Mx1 RNA (Mx1 RNA [3]): 100 fold; EC50 of Mx1 RNA induction (Mx1 RNA [3]; 4 hours treatment): approximately 50 pg/ml; time of highest Mx1 expression levels after injection (Mx1 RNA [4]; bolus protein): 2 h; time after injection beyond which no Mx1 RNA levels above background were detected (Mx1 RNA [4]; bolus protein i.m.): 12 h; specific activity of the purified protein [5]: 2×10^8 units/mg
